Like-named read-outs stand apart in the source and are kept apart here.
How the values were obtained:
[1] = test system: primary peritoneal mouse macrophages (PMM); assay: cells; conditions: Macrophage
in vitro [2] = conditions: human, microsomes, human liver microsomes
physchem = conditions: HPLC, Ascentis Express RP Amide column, pH 7.4, eLogD, experimental
in vitro [3] = conditions: human
in vitro [4] = conditions: PAMPA
[5] = test system: Leishmania infantum MHOM/MA(BE)/67/ITMAP263 intracellular amastigotes; assay: microbe, parasite or virus in culture; conditions: Macrophage, in Mus musculus
[6] = test system: Trypanosoma cruzi, Tulahuen CL2, beta-galactosidase strain; assay: microbe, parasite or virus in culture
in vitro [7] = conditions: mouse, microsomes, mouse liver microsomes
in vitro [8] = conditions: human, HFF-1 cells
in vitro [9] = conditions: human, HepG2 cells
in vitro [10] = conditions: PAMPA; remark: listed apart in the source
[11] = read-out: L. Inf. pIC50, from L. infantum intracellular amastigote IC50 (converted)
[12] = read-out: L. infantum MHOM/MA(BE)/67/ITMAP263 intracellular amastigotes IC50, intracellular amastigotes
[13] = MRC5, read-out: T. cruzi Tulahuen C4 (LacZ) IC50

| SMILES | IC50 ([1]; read-out: PMM IC50) [µM] | microsomal CLint at 0.5 μM (in vitro [2]; pH 7.4, HLM CLint) [µL/min/mg] | chromatographic logD (physchem) | CC50 at 3 days (in vitro [3]) [µM] | Papp (in vitro [4]) [×10⁻⁶ cm/s] | IC50 [5, 11] [µM] | IC50 [5, 12] [µM] | IC50 [6, 13] [µM] | microsomal CLint at 0.5 μM (in vitro [7]; pH 7.4, MLM CLint) [µL/min/mg] | IC50 ([1]; read-out: PMM IC50 (uM)) [µM] | microsomal CLint at 0.5 μM (in vitro [2]; pH 7.4, HLM CLint (uL/min/mg)) [µL/min/mg] | microsomal CLint at 0.5 μM (in vitro [7]; pH 7.4, MLM CLint (uL/min/mg)) [µL/min/mg] | CC50 (in vitro [8]) [µM] | CC50 (in vitro [9]) [µM] | Papp (in vitro [10]) [×10⁻⁶ cm/s] | IC50 ([5]; read-out: L. infantum MHOM/MA(BE)/67/ITMAP263 intracellular amastigotes IC50 (uM), intracellular amastigotes) [µM] | IC50 ([6]; MRC5, read-out: T. cruzi Tulahuen C4 (LacZ) IC50 (uM)) [µM] |
| --- | --- | --- | --- | --- | --- | --- | --- | --- | --- | --- | --- | --- | --- | --- | --- | --- | --- |
| O=S(=O)(c1cc(F)ccc1F)N(CCO)Cc1ccccc1 [DNDI0003368289] | > 64 | < 23 | 3.2 | > 64 | 15.7 | > 64 | > 64 | 47.2 |  |  |  |  |  |  |  |  |  |
| COC(=O)C(Cc1ccccc1)NS(=O)(=O)c1ccccc1Br (centres unmarked) [DNDI0003369003] | > 64 |  | 3.4 | > 64 | 20.4 | > 64 | > 64 | 58 |  |  |  |  |  |  |  |  |  |
| CN(C)CCN(Cc1ccccc1)S(=O)(=O)c1ccc(N)cc1 [DNDI0003368290] | > 64 | 56 | 2.5 | > 64 | 0.88 | > 64 | > 64 | > 64 |  |  |  |  |  |  |  |  |  |
| COc1ccc(Cl)cc1S(=O)(=O)N(CC(=O)c1ccc(F)cc1)Cc1ccccc1 [DNDI0003371155] | 45.2 |  | 4.8 | > 64 | 0.24 | 41.7 | 41.8 | > 64 | 1900 |  |  |  |  |  |  |  |  |
| COCCN(Cc1ccc(F)cc1)S(=O)(=O)c1cc(C#N)ccc1OC [DNDI0003368395] | > 64 | < 23 |  | > 64 | 15.3 | 8.91 | 8.88 | > 64 |  |  |  |  |  |  |  |  |  |
| COc1ccc(OC)c(S(=O)(=O)N(CCN2CCOCC2)Cc2ccccc2)c1 [DNDI0003368294] | > 64 | 227 | 3.4 | > 64 | 5.27 | 9.12 | 9.06 | > 64 |  |  |  |  |  |  |  |  |  |
| COc1ccc(OC)c(S(=O)(=O)N(Cc2ccccc2)C2CCCN(C(C)=O)C2)c1 (centres unmarked) [DNDI0003367307] | > 64 |  | 3.3 | > 64 | 16.4 | > 64 | > 64 | 54.3 |  |  |  |  |  |  |  |  |  |
| CCCCOc1ncccc1S(=O)(=O)NCc1ccc(F)cc1 [DNDI0003368396] | > 64 | 1650 | 3.8 | > 64 | 14.9 | 8.71 | 8.73 | 29.6 |  |  |  |  |  |  |  |  |  |
| CNC(=O)c1ccc(OC)c(S(=O)(=O)N(Cc2ccccc2)Cc2ccccc2)c1 [DNDI0003368298] | 50.8 | 316 | 3.8 | 4.87 | 10.4 | 0.708 | 0.71 | > 64 |  |  |  |  |  |  |  |  |  |
| COc1ccc(C#N)cc1S(=O)(=O)N(Cc1ccccc1)Cc1ccccc1 [DNDI0003366138] | > 64 | 304 |  | 40.4 | 3.93 | 0.437 | 0.44 | 8.16 |  |  |  |  |  |  |  |  |  |
| COc1ccc(CN2CCOCC2)cc1S(=O)(=O)N(Cc1ccc(F)cc1)Cc1ccc(F)cc1 [DNDI0003370082] | > 64 | 49 |  | > 64 | 0.74 | 0.525 | 0.52 | 1.56 | 3200 |  |  |  |  |  |  |  |  |
| COc1ccc(-c2nc(C)no2)cc1S(=O)(=O)N(Cc1ccc(F)cc1)Cc1ccc(F)cc1 [DNDI0003388085] |  |  | 4.6 | > 64 |  | 5.62 |  |  |  | > 64 | 177 | 739 | 38.6 | > 64 | 1.74 | 5.68 | > 64 |
| CN(C)CCN(Cc1ccccc1)S(=O)(=O)c1ccc(N2C(=O)CCC2=O)cc1 [DNDI0003368291] | > 64 | < 23 | 2.5 | > 64 | 1.64 | > 64 | > 64 | > 64 |  |  |  |  |  |  |  |  |  |
| COc1ccc(OC)c(S(=O)(=O)N(Cc2ccc(F)cc2)Cc2nc(C)no2)c1 [DNDI0003368295] | > 64 | 350 |  | > 64 | 8.92 | 7.76 | 7.75 | 30 |  |  |  |  |  |  |  |  |  |

— publication PMC8126888 (RSC Medicinal Chemistry, 2020)
